In PubChem BioAssay AID330 (DTP/NCI, 2004):
“And” between values parts separate entries of the source, which are not always exact repeats. Identical values can stand only once. Inconclusive results and toxic doses are left out. The calls were made as follows: active = survival T/C of 150% or more; inactive = T/C below 125% in these data.

System: P388 leukemia ip, CD2F1 mice, survival T/C
Assay: NCI In Vivo Anticancer Drug Screen. Data for tumor model P388 Leukemia (intraperitoneal) in CD2F1 (CDF1) mice
Details: endpoint: median survival time, higher = longer survival
Summary of the method: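 Mice carrying the transplanted tumor received test compound or vehicle. Survival was recorded in each group, and the value is the treated-group measurement divided by that of the vehicle-treated control group.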

[1] = dose: 50.0 mg/kg/injection, schedule: Q01DX009 (ip), vehicle: saline
[2] = dose: 6.25 mg/kg/injection, schedule: Q01DX009 (ip), vehicle: saline with Tween-80
[3] = dose: 12.5 mg/kg/injection, schedule: Q01DX009 (ip), vehicle: saline with Tween-80
[4] = dose: 25.0 mg/kg/injection, schedule: Q01DX009 (ip), vehicle: saline with Tween-80
[5] = dose: 50.0 mg/kg/injection, schedule: Q01DX005 (ip), vehicle: saline with Tween-80
[6] = dose: 100.0 mg/kg/injection, schedule: Q01DX005 (ip), vehicle: saline with Tween-80
[7] = dose: 200.0 mg/kg/injection, schedule: Q01DX005 (ip), vehicle: saline with Tween-80
[8] = dose: 200.0 mg/kg/injection, schedule: Q01DX009 (ip), vehicle: saline with Tween-80
[9] = dose: 60.0 mg/kg/injection, schedule: Q01DX005 (ip), vehicle: saline with Tween-80
[10] = dose: 120.0 mg/kg/injection, schedule: Q01DX005 (ip), vehicle: saline with Tween-80
[11] = dose: 240.0 mg/kg/injection, schedule: Q01DX005 (ip), vehicle: saline with Tween-80
[12] = dose: 100.0 mg/kg/injection, schedule: Q01DX009 (ip), vehicle: saline
[13] = dose: 200.0 mg/kg/injection, schedule: Q01DX009 (ip), vehicle: saline
[14] = dose: 100.0 mg/kg/injection, schedule: Q04DX003 (ip), vehicle: saline with Tween-80
[15] = dose: 200.0 mg/kg/injection, schedule: Q04DX003 (ip), vehicle: saline with Tween-80

Measured: T/C

CCCCCCCCCCCCCCCCCC(=O)NCNC(=O)CCCCCCCCCCCCCCCCC
inactive: dose: 4.68 mg/kg/injection, schedule: Q01DX009 (ip), vehicle: saline with Tween-80 100 % of control | dose: 9.37 mg/kg/injection, schedule: Q01DX009 (ip), vehicle: saline with Tween-80 100 % of control | dose: 9.37 mg/kg/injection, schedule: Q04DX003 (ip), vehicle: saline 100 % of control | dose: 18.75 mg/kg/injection, schedule: Q01DX009 (ip), vehicle: saline with Tween-80 90 % of control | dose: 18.75 mg/kg/injection, schedule: Q04DX003 (ip), vehicle: saline 95 % of control

CN(C)CC(CN(C)C)C(=O)c1ccc2c(c1)OCO2
inactive: dose: 15.0 mg/kg/injection, schedule: Q01DX005 (ip), vehicle: saline 122 % of control | dose: 30.0 mg/kg/injection, schedule: Q01DX005 (ip), vehicle: saline 117 % of control | dose: 60.0 mg/kg/injection, schedule: Q01DX005 (ip), vehicle: saline 119 % of control

CN(C)C(=S)S(C)(=O)=O
inactive: dose: 12.5 mg/kg/injection, schedule: Q01DX009 (ip), vehicle: saline 107 % of control | dose: 25.0 mg/kg/injection, schedule: Q01DX009 (ip), vehicle: saline 109 % of control | [1] 103 % of control and 107 % of control

CCC(=O)Nc1ccc(C(=O)C(C)Br)cc1 (stereo unspecified)
inactive: [2] 108 % of control | [3] 115 % of control | [4] 117 % of control

CCC1OCC(C(Cl)CCl)O1 (stereo unspecified)
inactive: [5] 102 % of control | [6] 111 % of control | dose: 132.0 mg/kg/injection, schedule: Q01DX009 (ip), vehicle: saline with Tween-80 100 % of control | [7] 103 % of control | [8] 118 % of control | dose: 300.0 mg/kg/injection, schedule: Q01DX009 (ip), vehicle: saline with Tween-80 118 % of control

O=C1OCC/C1=C\c1ccco1
inactive: dose: 50.0 mg/kg/injection, schedule: Q01DX005 (ip), vehicle: acetone 119 % of control | dose: 100.0 mg/kg/injection, schedule: Q01DX005 (ip), vehicle: acetone 103 % of control

CN(C)C1CS(=O)(=O)OC2=C1CCSc1ccccc12 (stereo unspecified)
inactive: [9] 102 % of control | [10] 99 % of control | [11] 100 % of control

CCOC(=O)c1nc(C)n2cc([N+](=O)[O-])ccc12
inactive: dose: 2.0 mg/kg/injection, schedule: Q01DX009 (ip), vehicle: saline 86 % of control | dose: 4.0 mg/kg/injection, schedule: Q01DX009 (ip), vehicle: saline 91 % of control | dose: 8.0 mg/kg/injection, schedule: Q01DX009 (ip), vehicle: saline 88 % of control

Cc1nc2nc3n(c(=O)c2nc1C)CCCS3
inactive: [1] 105 % of control | [12] 103 % of control | [13] 113 % of control

Cc1cc(C(=C2C=CC(=Nc3ccc(S(=O)(=O)O)cc3)C=C2)c2ccc(Nc3ccc(S(=O)(=O)O)cc3)cc2)cc(S(=O)(=O)O)c1N
inactive: dose: 50.0 mg/kg/injection, schedule: Q01DX005 (ip), vehicle: suspension in saline 102 % of control | dose: 100.0 mg/kg/injection, schedule: Q01DX005 (ip), vehicle: suspension in saline 99 % of control | dose: 200.0 mg/kg/injection, schedule: Q01DX005 (ip), vehicle: suspension in saline 99 % of control

CCCCCCC(=O)/C=C/c1ccc(F)cc1
inactive: [5] 101 % of control | [6] 106 % of control | [7] 100 % of control

CCOC(=O)COc1ccc2c(=O)c(C)c(-c3ccccc3)oc2c1
inactive: [1] 97 % of control | [12] 101 % of control | [13] 97 % of control

Cc1cccnc1NCc1ccccn1
inactive: [5] 103 % of control | [6] 100 % of control | [7] 93 % of control

O=C(NC(CO)C(=O)OCc1ccccc1)OCc1ccccc1 (stereo unspecified)
inactive: dose: 100.0 mg/kg/injection, schedule: Q01DX009 (ip), vehicle: saline with Tween-80 90 % of control | [8] 90 % of control | dose: 400.0 mg/kg/injection, schedule: Q01DX009 (ip), vehicle: saline with Tween-80 95 % of control

CCN1CC2(C)CCC(OC)C34C5CC6CCC(O)(C5C(=O)O6)C(C(OC(C)=O)C23)C14 (stereo unspecified)
inactive: dose: 3.0 mg/kg/injection, schedule: Q01DX009 (ip), vehicle: saline 100 % of control | dose: 6.0 mg/kg/injection, schedule: Q01DX009 (ip), vehicle: saline 101 % of control | dose: 12.0 mg/kg/injection, schedule: Q01DX009 (ip), vehicle: saline 98 % of control

COc1ccc2nc3cc(Cl)ccc3c(NCCCNCCCCNCCCNc3c4ccc(Cl)cc4nc4ccc(OC)cc34)c2c1
inactive: dose: 0.62 mg/kg/injection, schedule: Q01DX009 (ip), vehicle: other 106 % of control | dose: 1.25 mg/kg/injection, schedule: Q01DX009 (ip), vehicle: other 110 % of control | dose: 2.5 mg/kg/injection, schedule: Q01DX009 (ip), vehicle: other 119 % of control

CCC(/C=C/c1ccc(OC)cc1)=N/Nc1ccccc1
inactive: dose: 30.0 mg/kg/injection, schedule: Q01DX005 (ip), vehicle: other 109 % of control | dose: 60.0 mg/kg/injection, schedule: Q01DX005 (ip), vehicle: other 100 % of control | dose: 120.0 mg/kg/injection, schedule: Q01DX005 (ip), vehicle: other 103 % of control and 109 % of control | dose: 240.0 mg/kg/injection, schedule: Q01DX005 (ip), vehicle: other 113 % of control

O=[N+]([O-])c1ccc(O)c(/C=N\NS(=O)(=O)c2ccc(Cl)cc2)c1
inactive: [5] 108 % of control | [6] 100 % of control

O=C1SC2(CCCCC2)SC1=O
inactive: dose: 50.0 mg/kg/injection, schedule: Q04DX003 (ip), vehicle: saline with Tween-80 109 % of control | [14] 104 % of control | [15] 104 % of control

[Mn].[NH-]C(CSSCC(N)C(=O)O)C(=O)O (stereo unspecified)
inactive: dose: 100.0 mg/kg/injection, schedule: Q04DX003 (ip), vehicle: saline 97 % of control | dose: 200.0 mg/kg/injection, schedule: Q04DX003 (ip), vehicle: saline 114 % of control | dose: 400.0 mg/kg/injection, schedule: Q04DX003 (ip), vehicle: saline 106 % of control

S=c1nc[nH]c2c1ncn2C1CCCO1 (stereo unspecified)
inactive: [14] 100 % of control | [15] 118 % of control

COC(=O)c1nc(=S)[nH]c(C(=O)OC)c1C(=O)c1ccccc1
inactive: dose: 60.0 mg/kg/injection, schedule: Q01DX005 (ip), vehicle: Klucel + Tween-80 101 % of control | dose: 120.0 mg/kg/injection, schedule: Q01DX005 (ip), vehicle: Klucel + Tween-80 93 % of control | dose: 240.0 mg/kg/injection, schedule: Q01DX005 (ip), vehicle: Klucel + Tween-80 92 % of control

O=C(O)c1cc(-c2c(Cl)cccc2Cl)nc2cc3ccccc3cc12
inactive: dose: 50.0 mg/kg/injection, schedule: Q01DX009 (ip), vehicle: Klucel (hydroxypropylcellulose) (HPC) 111 % of control | dose: 100.0 mg/kg/injection, schedule: Q01DX009 (ip), vehicle: Klucel (hydroxypropylcellulose) (HPC) 106 % of control | dose: 200.0 mg/kg/injection, schedule: Q01DX009 (ip), vehicle: Klucel (hydroxypropylcellulose) (HPC) 106 % of control

O=C(CC(=O)c1ccc(Cl)s1)C(=O)Nc1cccc(C(F)(F)F)c1
inactive: [9] 105 % of control | [10] 102 % of control | [11] 106 % of control

CCC(=O)N1C(=O)C(C)C23c4ccccc4C(=O)N2CCCN13 (stereo unspecified)
inactive: [5] 97 % of control | [6] 96 % of control | [7] 96 % of control

c1ccc2c(c1)ccc1c(NCCCCNc3c4ccccc4nc4c3ccc3ccccc34)c3ccccc3nc12
inactive: [2] 107 % of control | [3] 107 % of control

COc1ccc(/C=C/C2C(C#N)(C#N)C(OC)(OC)C2(OC)OC)cc1 (stereo unspecified)
inactive: dose: 60.0 mg/kg/injection, schedule: Q01DX005 (ip), vehicle: Klucel (hydroxypropylcellulose) (HPC) 101 % of control | dose: 120.0 mg/kg/injection, schedule: Q01DX005 (ip), vehicle: Klucel (hydroxypropylcellulose) (HPC) 102 % of control | dose: 240.0 mg/kg/injection, schedule: Q01DX005 (ip), vehicle: Klucel (hydroxypropylcellulose) (HPC) 98 % of control

CC(C)S(=O)(=O)/C(Cl)=C(/Cl)C(Cl)=C(Cl)Cl
inactive: [3] 100 % of control | [4] 109 % of control | dose: 50.0 mg/kg/injection, schedule: Q01DX009 (ip), vehicle: saline with Tween-80 95 % of control
